Legend:
Trypanosoma brucei [1] = experiment: In vitro inhibitory concentration against Trypanosoma brucei rhodesiense strain KETRI 243; assay type: functional, organism-based
Trypanosoma brucei [2] = experiment: In vitro inhibitory concentration against Trypanosoma brucei rhodesiense strain KETRI 269; assay type: functional, organism-based
Trypanosoma brucei [3] = experiment: In vitro inhibitory concentration against Trypanosoma brucei rhodesiense strain KETRI 243-As-103; assay type: functional, organism-based
Adenosylhomocysteinase = Adenosylhomocysteinase (Mus musculus, UniProt P50247); experiment: In vitro inhibitory concentration against purified S-Adenosyl-homocysteine hydrolase isolated from murine L929 cells
Adenosylhomocysteinase, sequence (P50247 whole entry): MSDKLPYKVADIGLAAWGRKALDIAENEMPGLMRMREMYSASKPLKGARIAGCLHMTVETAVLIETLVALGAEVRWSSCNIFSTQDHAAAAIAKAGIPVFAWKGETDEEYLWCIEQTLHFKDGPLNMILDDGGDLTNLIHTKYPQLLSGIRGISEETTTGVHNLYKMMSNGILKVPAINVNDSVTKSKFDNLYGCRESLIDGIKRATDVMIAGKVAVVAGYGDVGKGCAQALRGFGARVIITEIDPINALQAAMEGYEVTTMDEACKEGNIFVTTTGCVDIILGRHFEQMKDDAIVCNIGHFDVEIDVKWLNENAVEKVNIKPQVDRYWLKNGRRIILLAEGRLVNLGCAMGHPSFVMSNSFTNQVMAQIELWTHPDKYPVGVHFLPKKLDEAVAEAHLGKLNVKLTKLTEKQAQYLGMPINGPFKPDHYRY

Trypanosoma brucei [4] = experiment: In vitro inhibitory concentration against Trypanosoma brucei LAB 110 EATRO test strain; assay type: functional, organism-based

| Compound | IC50 (Trypanosoma brucei [1]) | IC50 (Trypanosoma brucei [2]) | IC50 (Trypanosoma brucei [3]) | IC50 (Adenosylhomocysteinase) | IC50 (Trypanosoma brucei [4]) |
| --- | --- | --- | --- | --- | --- |
| Nc1ncnc2c1ccn2[C@H]1C[C@@H](O)[C@H](O)[C@@H]1O | 165 nM | 165 nM | 5300 nM | > 500000 nM | 165 nM |
| Nc1ncnc2c1ccn2[C@@H]1C[C@H](O)[C@@H](O)[C@H]1O |  |  |  | > 500000 nM |  |

Source: ChEMBL document CHEMBL1129947, “(+)-7-Deaza-5'-noraristeromycin as an anti-trypanosomal agent” (J Med Chem, 1997)
